The values below come from patent publication US8580965B2, “Substituted sulfonamide compounds” (Gruenenthal GmbH, priority 2006, dated 2013).

Counter-ions that a name gives are not always drawn.

Assay [1] has as its target T1, B1R receptor of the rat (bradykinin 1 receptor) (Rattus norvegicus, UniProt P97583).
T1 construct: host or cells: CHO K1 cells (rB1R cells)
T1 sequence (P97583 1-337): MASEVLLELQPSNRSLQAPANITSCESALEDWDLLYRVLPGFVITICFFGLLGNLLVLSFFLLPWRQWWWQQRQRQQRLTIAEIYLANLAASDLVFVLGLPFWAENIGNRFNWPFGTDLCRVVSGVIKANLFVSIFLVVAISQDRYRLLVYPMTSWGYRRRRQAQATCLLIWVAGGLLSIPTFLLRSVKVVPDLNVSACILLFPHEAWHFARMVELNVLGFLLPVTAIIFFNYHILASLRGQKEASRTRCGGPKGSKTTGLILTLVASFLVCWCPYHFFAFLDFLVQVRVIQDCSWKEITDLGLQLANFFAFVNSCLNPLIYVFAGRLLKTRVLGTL
The experiment in a line: FLIPR Ca2+ assay (Fluo-4) on CHO K1 cells stably transfected with the B1R gene of the rat; % activation and % inhibition at 10 μM. The format is cell-based. To be noted: CHO K1 rB1R cells, Ca2+ inflow after 100 nM Des-Arg9-bradykinin; for inhibition at 10 µM: CHO-K1, test substance 10 μM, read-out: B1R antagonism, rat [10 μM] % inhibition; for B1R antagonism, rat [10 μM] % inhibition: test substance 10 μM. An outline of the steps:
(§1)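 Fluo-4 Ca2+ flux on FLIPR in stable hB1R or rB1R CHO K1 lines, two additions. Agonism: 10 µM compound versus 0.5 nM Lys-Des-Arg9-BK (human) or 100 nM Des-Arg9-BK (rat); antagonism: same agonists applied 10 min later, suppression expressed against maximum achievable inhibition.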

Assay [2] deals with T2, human B1R receptor (bradykinin 1 receptor) (Homo sapiens, UniProt P46663).
T2 construct: host or cells: CHO K1 cells (hB1R cells)
T2 sequence (P46663 1-353): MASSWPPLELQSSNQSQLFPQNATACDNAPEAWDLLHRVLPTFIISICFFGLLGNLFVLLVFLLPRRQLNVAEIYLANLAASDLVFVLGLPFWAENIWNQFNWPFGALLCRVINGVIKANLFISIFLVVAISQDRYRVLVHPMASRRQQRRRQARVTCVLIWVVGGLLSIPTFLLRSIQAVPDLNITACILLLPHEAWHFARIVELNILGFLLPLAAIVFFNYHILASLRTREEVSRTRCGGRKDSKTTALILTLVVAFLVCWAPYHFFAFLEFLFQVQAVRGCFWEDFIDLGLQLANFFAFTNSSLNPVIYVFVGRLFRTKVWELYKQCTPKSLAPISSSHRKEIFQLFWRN
The experiment in a line: FLIPR Ca2+ assay (Fluo-4) on CHO K1 cells stably transfected with the human B1R gene; % activation and % inhibition at 10 μM. The assay is classed as cell-based. The settings on record: CHO K1 hB1R cells, Ca2+ inflow after 0.5 nM Lys-Des-Arg9-bradykinin; for inhibition at 10 µM: CHO-K1, test substance 10 μM, read-out: B1R antagonism, human [10 μM] % inhibition; for B1R antagonism, human [10 μM] % inhibition: test substance 10 μM. An outline of the steps:
as §1

Consider `COc1cc(C)c(S(=O)(=O)N(C)CCOCCC(=O)N2CCC(O)(Cc3ccccc3)CC2)c(C)c1` [Example 277, N-(2-(3-(4-benzyl-4-hydroxypiperidin-1-yl)-3-oxopropoxy)ethyl)-4-methoxy-N,2,6-trimethylphenylsulfonamide], for which the inhibition at 10 µM in assay [1] amounted to 88.2%; in assay [2], 86.8%.
For the compound `O=C(COCC1CCCN1S(=O)(=O)c1c(Cl)cccc1Cl)N1CCC(O)(c2ccc(Br)cc2)CC1` (stereo not drawn) [Example 219, 1-(4-(4-bromophenyl)-4-hydroxypiperidin-1-yl)-2-((1-(2,6-dichlorophenylsulfonyl)pyrrolidin-2-yl)methoxy)ethanone], the inhibition at 10 µM in assay [1] turned out to be 101%; in assay [2], 102%.
For the compound `COc1cc(C)c(S(=O)(=O)N2CCCC(COCC(=O)N3CCC(O)(c4ccc(Cl)cc4)CC3)C2)c(C)c1` (stereo not drawn) [Example 251, 1-(4-(4-chlorophenyl)-4-hydroxypiperidin-1-yl)-2-((1-(4-methoxy-2,6-dimethylphenylsulfonyl)piperidin-3-yl)methoxy)ethanone], the figures for the inhibition at 10 µM in assay [1] and in assay [2] were 92.9% and 47.8%, respectively.
As to `O=C(COCC1CCCN1S(=O)(=O)c1c(Cl)cc(C(F)(F)F)cc1Cl)N1CCC(O)(c2ccc(Br)cc2)CC1` (stereo not drawn) [Example 167, 1-(4-(4-bromophenyl)-4-hydroxypiperidin-1-yl)-2-((1-(2,6-dichloro-4-(trifluoromethyl)phenylsulfonyl)pyrrolidin-2-yl)methoxy)ethanone], the inhibition at 10 µM was 104% in assay [1] and 41.5% in assay [2].
For `O=C(COCC1CCCCN1S(=O)(=O)c1c(Cl)cc(C(F)(F)F)cc1Cl)N1CCC(O)(c2ccccc2)CC1` (stereo not drawn) [Example 162, 2-((1-(2,6-dichloro-4-(trifluoromethyl)phenylsulfonyl)piperidin-2-yl)methoxy)-1-(4-hydroxy-4-phenylpiperidin-1-yl)ethanone], the inhibition at 10 µM was 105% in assay [1] and 24.6% in assay [2].
On to `CCN(CCOCC(=O)N1CCC(O)(Cc2ccccc2)CC1)S(=O)(=O)c1c(C)cc(OC)c(C)c1C` [Example 1, N-{2-[2-(4-benzyl-4-hydroxy-piperidin-1-yl)-2-oxo-ethoxy]-ethyl}-N-ethyl-4-methoxy-2,3,6-trimethyl-phenylsulfonamide], for which the inhibition at 10 µM in assay [1] is 102%; in assay [2], 104%.
In the case of `COc1cc(C)c(S(=O)(=O)N(C)CCOCC(=O)N2CCC(O)(c3cccnc3)CC2)c(C)c1` [Example 3, N-(2-(2-(4-hydroxy-4-(pyridin-3-yl)piperidin-1-yl)-2-oxoethoxy)ethyl)-4-methoxy-N,2,6-trimethylphenylsulfonamide hydrochloride], in assay [1] (hydrochloride), the “B1R antagonism, rat [10 μM] % inhibition” value was 103.06%. The “B1R antagonism, human [10 μM] % inhibition” value in assay [2] (hydrochloride) is 102.19%.
Consider `O=C(COC1CCN(S(=O)(=O)c2c(Cl)cc(Cl)cc2Cl)C1)N1CCC(O)(c2ccccc2)CC1` (stereo not drawn) [Example 108, 1-(4-hydroxy-4-phenylpiperidin-1-yl)-2-(1-(2,4,6-trichlorophenylsulfonyl)pyrrolidin-3-yloxy)ethanone], for which the inhibition at 10 µM in assay [1] is 54.5%; in assay [2] it was 54.8%.
For `COc1ccc(S(=O)(=O)N2CCC(OCC(=O)N3CCC(O)(c4ccccn4)CC3)(c3ccccc3)CC2)cc1` [Example 74, 1-(4′-hydroxy-3′,4′,5′,6′-tetrahydro-2′H-[2,4′]bipyridinyl-1′-yl)-2-[1-(4-methoxy-phenylsulfonyl)-4-phenyl-piperidin-4-yloxy]-ethanone], in that order: -3.17% and -7.3%.
Take `CN(CCOCC(=O)N1CCC(O)(c2ccccn2)CC1)S(=O)(=O)c1ccc(F)cc1` [Example 56, 4-fluoro-N-{2-[2-(4′-hydroxy-3′,4′,5′,6′-tetrahydro-2′H-[2,4′]bipyridinyl-1′-yl)-2-oxo-ethoxy]-ethyl}-N-methyl-phenylsulfonamide]: the inhibition at 10 µM was -1.13% in assay [1] and -13.5% in assay [2].
For `O=C(COCC1CCCN1S(=O)(=O)c1cc(Cl)sc1Cl)N1CCC(O)(Cc2ccccc2)CC1` (stereo not drawn) [Example 226, 1-(4-benzyl-4-hydroxypiperidin-1-yl)-2-((1-(2,5-dichlorothiophen-3-ylsulfonyl)pyrrolidin-2-yl)methoxy)ethanone], the inhibition at 10 µM is 72.4% in assay [1] and 13% in assay [2].
`Cc1cc(Cl)cc(Cl)c1S(=O)(=O)N(C)CCOCC(=O)N1CCC(O)(c2ccccc2)CC1` [Example 105, 2,4-dichloro-N-(2-(2-(4-hydroxy-4-phenylpiperidin-1-yl)-2-oxoethoxy)ethyl)-N,6-dimethylphenylsulfonamide]: the inhibition at 10 µM worked out at 96.1% in assay [1] and 98.6% in assay [2].
Consider `Cc1ccc(F)cc1S(=O)(=O)N(C)CCOCC(=O)N1CCC(O)(c2ccccn2)CC1` [Example 97, 5-fluoro-N-{2-[2-(4′-hydroxy-3′,4′,5′,6′-tetrahydro-2′H-[2,4′]bipyridinyl-1′-yl)-2-oxo-ethoxy]-ethyl}-2,N-dimethyl-phenylsulfonamide], for which the inhibition at 10 µM worked out at 43.2% in assay [1] and 35.4% in assay [2].
For `Cc1cc(S(=O)(=O)N(C)CCOCC(=O)N2CCC(O)(c3cccc(C(F)(F)F)c3)CC2)c(C)s1` [Example 258, N-(2-(2-(4-hydroxy-4-(3-(trifluoromethyl)phenyl)piperidin-1-yl)-2-oxoethoxy)ethyl)-N,2,5-trimethylthiophene-3-sulfonamide], the figures for the inhibition at 10 µM in assay [1] and in assay [2] were 96.1% and 71.5%, respectively.
Turning to `O=C(COCC1CCCN1S(=O)(=O)c1cc(Cl)sc1Cl)N1CCC(O)(c2cccnc2)CC1` (stereo not drawn) [Example 203, 2-((1-(2,5-dichlorothiophen-3-ylsulfonyl)pyrrolidin-2-yl)methoxy)-1-(4-hydroxy-4-(pyridin-3-yl)piperidin-1-yl)ethanone], the results for the inhibition at 10 µM in assay [1] and in assay [2] were 85.1% and 84.2%, respectively.
Take `COc1cc(C)c(S(=O)(=O)N2CCCC2COCC(=O)N2CCC(O)(c3ccc(Br)cc3)CC2)c(C)c1` (stereo not drawn) [Example 214, 1-(4-(4-bromophenyl)-4-hydroxypiperidin-1-yl)-2-((1-(4-methoxy-2,6-dimethylphenylsulfonyl)pyrrolidin-2-yl)methoxy)ethanone]: the values for the inhibition at 10 µM in assay [1] and in assay [2] were 101% and 97.9%, respectively.
Regarding `O=C(COCC1CCCCN1S(=O)(=O)c1c(Cl)cccc1Cl)N1CCC(O)(c2cccnc2)CC1` (stereo not drawn) [Example 196, 2-((1-(2,6-dichlorophenylsulfonyl)piperidin-2-yl)methoxy)-1-(4-hydroxy-4-(pyridin-3-yl)piperidin-1-yl)ethanone], the inhibition at 10 µM in assay [1] was 96.5%; in assay [2], 103%.
On to `O=C(COCC1CCCN1S(=O)(=O)c1c(Cl)cc(C(F)(F)F)cc1Cl)N1CCC(O)(Cc2ccccc2)CC1` (stereo not drawn) [Example 169, 1-(4-benzyl-4-hydroxypiperidin-1-yl)-2-((1-(2,6-dichloro-4-(trifluoromethyl)phenylsulfonyl)pyrrolidin-2-yl)methoxy)ethanone], for which the inhibition at 10 µM was 79.4% in assay [1] and 14.6% in assay [2].
For `COc1cc(C)c(S(=O)(=O)N2Cc3ccccc3CC2COCC(=O)N2CCC(O)(Cc3ccccc3)CC2)c(C)c1C` (stereo not drawn) [Example 232, 1-(4-benzyl-4-hydroxypiperidin-1-yl)-2-((2-(4-methoxy-2,3,6-trimethylphenylsulfonyl)-1,2,3,4-tetrahydroisoquinolin-3-yl)methoxy)ethanone], the inhibition at 10 µM in assay [1] is 63.1%; in assay [2], 54.5%.
As for `COc1cc(C)c(S(=O)(=O)N(C)CCOCC(=O)N2CCC(O)(c3ccccn3)CC2)c(C)c1` [Example 4, N-{2-[2-(4′-hydroxy-3′,4′,5′,6-tetrahydro-2′H-[2,4′]bipyridinyl-1′-yl)-2-oxo-ethoxy]-ethyl}-4-methoxy-2,6,N-trimethyl-phenylsulfonamide], in assay [1], the “B1R antagonism, rat [10 μM] % inhibition” value is reported as 105.56%. Also, in assay [2], the “B1R antagonism, human [10 μM] % inhibition” value stood at 101.69%.
Take `COc1cc(C)c(S(=O)(=O)N(C)CCOCC(=O)N2CCC(O)(c3cccnc3)CC2)c(C)c1` [Example 143, N-(2-(2-(4-hydroxy-4-(pyridin-3-yl)piperidin-1-yl)-2-oxoethoxy)ethyl)-4-methoxy-N,2,6-trimethylphenylsulfonamide]: the inhibition at 10 µM in assay [1] worked out at 100%; in assay [2] it was 105%.

A word on the inhibition: it is the drop in the measured response relative to a control, in per cent.
